Measured values from PubChem BioAssay (NCI).
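Cultured in 96-well plates, cells were exposed to test compound for 48 hours across five concentrations. Here, GI50 denotes the concentration required for 50% inhibition of growth. TGI: concentration producing complete growth inhibition.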

Each molecule was assayed on MOLT-4 leukemia (assay: inhibition of tumour cell growth, NCI panel, 48 h).

CN1COc2c(n(C)c(=O)[nH]c2=O)C1 and CC1(C)C2CCC13CS(=O)(=O)N1O[C@]13C(=O)O2 (some centres not stated) cannot be ordered by TGI: > 100 µM for the first, > 100 µM for the second.

First: CC1(C)OCC(C(O)C2OC(C)(C)OC2/C=N\O)O1 (configuration not stated)
Second: COc1ccc(C(Cl)=C(c2ccc(OCCN(C)C)cc2)c2ccc(OCCN(C)C)cc2)cc1
The TGI of the first is higher: > 100 µM for the first, 6.04 µM for the second.

First: CCCCCCN(N)C(=O)CC#N
Second: O=C(O)/C(Cl)=C(\Cl)C(=O)Nc1ccc(Cl)c(Cl)c1Cl
The TGI of the first is higher: > 100 µM for the first, 59.7 µM for the second.

Each molecule was assayed on OVCAR-4 ovarian (assay: inhibition of tumour cell growth, NCI panel, 48 h).

Going from COc1ccc(/C=N/NC(=O)Cn2c(-c3ccc(S(C)(=O)=O)cc3)nc3cc(Cl)ccc32)cc1 to N#Cc1ccc(N=Cc2c([O-])ccc3ccccc23)cc1.[C-]#[O+].[C-]#[O+].[Ir], the GI50 rises from 2.53 µM to 3.85 µM (1.5-fold).

Going from COc1ccc2c(c1)OC1=C(C(=O)OC1)C2c1cc(OC)c2c(c1)OCO2 (configuration not stated) to C[C@@H]1O[C@@H](OC[C@H]2O[C@@H](OCCc3ccc(O)c(O)c3)[C@H](O)[C@@H](O)[C@@H]2OC(=O)/C=C/c2ccc(O)c(O)c2)[C@H](O)[C@H](O)[C@H]1O, the GI50 rises from 0.0597 µM to > 100 µM.

First: COc1ccc(/C=N/NC(=O)Cn2c(-c3ccc(S(C)(=O)=O)cc3)nc3cc(Cl)ccc32)cc1
Second: COc1ccc(C(Cl)=C(c2ccc(OCCN(C)C)cc2)c2ccc(OCCN(C)C)cc2)cc1
The TGI of the first is higher: > 50 µM for the first, 5.99 µM for the second.

CC1CN1c1c(C(=O)/C=C/c2ccccc2)c(-c2ccccc2)nn(C)c1=O (configuration not stated) and CN(C)CCC(/C=C/c1ccccc1)=N\Nc1ccc(Cl)cc1Cl are within 1.5-fold of each other in TGI: 31.9 µM for the first, 29.7 µM for the second.

CCOc1nc(N)nc(C)c1N=Nc1ccc(Cl)cc1 and CCOC(=O)C(=O)Nc1cc(Cl)ccc1Cl cannot be ordered by TGI: > 100 µM for the first, > 100 µM for the second.

First: c1ccc(P(=Nc2ccccc2N=P(c2ccccc2)(c2ccccc2)c2ccccc2)(c2ccccc2)c2ccccc2)cc1
Second: O=P1(Oc2ccccc2)C(c2ccccc2)C(c2ccccc2)=NN1c1ccccc1 (configuration not stated)
The TGI of the first is 5.8-fold lower: 14.9 µM for the first, 86.3 µM for the second.

COCCOCOc1ccc(OCOCCOC)c2c1C(=O)c1ccccc1C2=O and CCOC1=C2N=C(Cc3ccccc3F)N=C2C(=O)c2ccccc21 cannot be ordered by TGI: > 100 µM for the first, > 100 µM for the second.

CCO/C=C1\N=C(c2ccccc2Br)OC1=O and Cc1cc(N(CCC#N)CCC#N)ccc1/C=C1/N=C(c2ccccc2)N(N)C1=O cannot be ordered by TGI: > 100 µM for the first, > 100 µM for the second.

Compared with N#Cc1ccc(N=Cc2c([O-])ccc3ccccc23)cc1.[C-]#[O+].[C-]#[O+].[Ir], CN(C)c1ccc(/C=C2\C=Cc3ccccc32)cc1 is higher in TGI: 17.7 µM for the first, > 100 µM for the second.

[N-]=[N+]=C1C(=O)C2CC3CC(C2)CC1C3 and Cc1ccc(S(=O)OC2C3CC4CC(C3)CC2C4)cc1 (configuration not stated) cannot be ordered by TGI: > 100 µM for the first, > 100 µM for the second.

Compared with COC(=O)CC1NC(=O)C1C1(C)OCCO1 (configuration not stated), C=C1CCC2[C@@H](CCC3[C@]2(C)CCC[C@]3(C)C(=O)OC)[C@@H]1CC=O (some centres not stated) is lower in TGI: > 100 µM for the first, 85.2 µM for the second.

COC(CN1C=C(Sc2ccccc2)CC1)OC and COc1ccc(C=O)c(NC(=O)C(C)C)c1 cannot be ordered by TGI: > 100 µM for the first, > 100 µM for the second.

First: Cc1cc2c(c(C(=O)O)c1C)-c1cccc(F)c1C2=O
Second: C/C=C(\C)c1cc(O)c(C)c2c1Oc1cc(O)c(Cl)c(C)c1C(=O)O2
The TGI of the first is higher: > 100 µM for the first, 34.5 µM for the second.

COc1ccc2c(c1)OC1=C(C(=O)OC1)C2c1cc(OC)c2c(c1)OCO2 (configuration not stated) and COc1cc2nc(NCCCCCNC(=O)c3ccco3)nc(N)c2cc1OC cannot be ordered by TGI: > 100 µM for the first, > 100 µM for the second.

COC(=O)C(C)(C)N=CN(C)C and CCCCCCN(N)C(=O)CC#N cannot be ordered by TGI: > 100 µM for the first, > 100 µM for the second.

First: C[C@@H]1O[C@@H](OC[C@H]2O[C@@H](OCCc3ccc(O)c(O)c3)[C@H](O)[C@@H](O)[C@@H]2OC(=O)/C=C/c2ccc(O)c(O)c2)[C@H](O)[C@H](O)[C@H]1O
Second: O=C(O)/C(Cl)=C(\Cl)C(=O)Nc1ccc(Cl)c(Cl)c1Cl
The TGI of the first is higher: > 100 µM for the first, 33.6 µM for the second.

CNS(=O)(=O)NNS(=O)(=O)c1ccc(Cl)cc1 and CC1(C)C2CCC13CS(=O)(=O)N1O[C@]13C(=O)O2 (some centres not stated) cannot be ordered by TGI: > 100 µM for the first, > 100 µM for the second.

CCCCCCCCCCCCCP(=O)(O)NCC(N)=O and CN1COc2c(n(C)c(=O)[nH]c2=O)C1 cannot be ordered by TGI: > 100 µM for the first, > 100 µM for the second.

These molecules were tested on MALME-3M melanoma (assay: inhibition of tumour cell growth, NCI panel, 48 h).

Compared with COc1ccc(/C=N/NC(=O)Cn2c(-c3ccc(S(C)(=O)=O)cc3)nc3cc(Cl)ccc32)cc1, N#Cc1ccc(N=Cc2c([O-])ccc3ccccc23)cc1.[C-]#[O+].[C-]#[O+].[Ir] is 1.9-fold higher in GI50: 2.3 µM for the first, 4.42 µM for the second.

For COc1ccc2c(c1)OC1=C(C(=O)OC1)C2c1cc(OC)c2c(c1)OCO2 (configuration not stated), the GI50 was > 100 µM.

Compared with COc1ccc(/C=N/NC(=O)Cn2c(-c3ccc(S(C)(=O)=O)cc3)nc3cc(Cl)ccc32)cc1, COc1ccc(C(Cl)=C(c2ccc(OCCN(C)C)cc2)c2ccc(OCCN(C)C)cc2)cc1 is 14-fold lower in TGI: 46.4 µM for the first, 3.35 µM for the second.

CC1CN1c1c(C(=O)/C=C/c2ccccc2)c(-c2ccccc2)nn(C)c1=O (configuration not stated) and CN(C)CCC(/C=C/c1ccccc1)=N\Nc1ccc(Cl)cc1Cl are within 1.5-fold of each other in TGI: 34.9 µM for the first, 41.2 µM for the second.

CCOc1nc(N)nc(C)c1N=Nc1ccc(Cl)cc1 and CCOC(=O)C(=O)Nc1cc(Cl)ccc1Cl cannot be ordered by TGI: > 100 µM for the first, > 100 µM for the second.

COCCOCOc1ccc(OCOCCOC)c2c1C(=O)c1ccccc1C2=O and CCOC1=C2N=C(Cc3ccccc3F)N=C2C(=O)c2ccccc21 cannot be ordered by TGI: > 100 µM for the first, > 100 µM for the second.

CCO/C=C1\N=C(c2ccccc2Br)OC1=O and Cc1cc(N(CCC#N)CCC#N)ccc1/C=C1/N=C(c2ccccc2)N(N)C1=O cannot be ordered by TGI: > 100 µM for the first, > 100 µM for the second.

O=P1(Oc2ccccc2)C(c2ccccc2)C(c2ccccc2)=NN1c1ccccc1 (configuration not stated) and CN(C)c1ccc(/C=C2\C=Cc3ccccc32)cc1 cannot be ordered by TGI: > 100 µM for the first, > 100 µM for the second.

Going from N#Cc1ccc(N=Cc2c([O-])ccc3ccccc23)cc1.[C-]#[O+].[C-]#[O+].[Ir] to COC(CN1C=C(Sc2ccccc2)CC1)OC, the TGI rises from 15.1 µM to > 100 µM.

[N-]=[N+]=C1C(=O)C2CC3CC(C2)CC1C3 and Cc1ccc(S(=O)OC2C3CC4CC(C3)CC2C4)cc1 (configuration not stated) cannot be ordered by TGI: > 100 µM for the first, > 100 µM for the second.

Compared with COC(=O)CC1NC(=O)C1C1(C)OCCO1 (configuration not stated), C=C1CCC2[C@@H](CCC3[C@]2(C)CCC[C@]3(C)C(=O)OC)[C@@H]1CC=O (some centres not stated) is lower in TGI: > 100 µM for the first, 87.7 µM for the second.

Compared with COc1ccc(C=O)c(NC(=O)C(C)C)c1, COc1ccc2c(c1)OC1=C(C(=O)OC1)C2c1cc(OC)c2c(c1)OCO2 (configuration not stated) is higher in TGI: 94.4 µM for the first, > 100 µM for the second.

Going from Cc1cc2c(c(C(=O)O)c1C)-c1cccc(F)c1C2=O to COc1cc2nc(NCCCCCNC(=O)c3ccco3)nc(N)c2cc1OC, the TGI falls from > 100 µM to 33.3 µM.

COC(=O)C(C)(C)N=CN(C)C and CC1(C)OCC(C(O)C2OC(C)(C)OC2/C=N\O)O1 (configuration not stated) cannot be ordered by TGI: > 100 µM for the first, > 100 µM for the second.

First: CNS(=O)(=O)NNS(=O)(=O)c1ccc(Cl)cc1
Second: O=C(O)/C(Cl)=C(\Cl)C(=O)Nc1ccc(Cl)c(Cl)c1Cl
The TGI of the first is higher: > 100 µM for the first, 34.9 µM for the second.

CCCCCCCCCCCCCP(=O)(O)NCC(N)=O and CCCCCCN(N)C(=O)CC#N cannot be ordered by TGI: > 100 µM for the first, > 100 µM for the second.

CN1COc2c(n(C)c(=O)[nH]c2=O)C1 and CC1(C)C2CCC13CS(=O)(=O)N1O[C@]13C(=O)O2 (some centres not stated) cannot be ordered by TGI: > 100 µM for the first, > 100 µM for the second.

Each molecule was assayed on OVCAR-8 ovarian (assay: inhibition of tumour cell growth, NCI panel, 48 h).

COc1ccc(/C=N/NC(=O)Cn2c(-c3ccc(S(C)(=O)=O)cc3)nc3cc(Cl)ccc32)cc1 was tested, and the GI50 was 1.79 µM.

COc1ccc(/C=N/NC(=O)Cn2c(-c3ccc(S(C)(=O)=O)cc3)nc3cc(Cl)ccc32)cc1 was tested, and the TGI was > 50 µM.
